Source: patent US12465582B2, “(S)-2-amino-6-((3-aminopropyl)amino)hexanoic acid (APL) for use in the treatment of non-alcoholic steatohepatitis (NASH), liver inflammation, hepatocellular ballooning, liver fibrosis and steatosis” (Temple University—Of The Commonwealth System Of Higher …, priority 2020, dated 2025)

Legend:
[1] = See WO 2018/049019 and US 2019/0192462; cited from earlier work
[2] = test system: 4-hydroxynonenal (4-HNE) in liver of Zucker (fa/fa) obese rats; assay: Hepatic 4-HNE immunofluorescence (protein carbonyls) in rat NASH model; assay type: in vivo
Source text: (§1) Zucker (fa/fa) obese rats and Zucker (Fa/fa) lean rats (7-week old male animals obtained from Charles Rivers Laboratories, Wilmington, MA, USA) were maintained in individual cages (1 rat per cage to encourage sedentary activity) and had free access to standard rodent chow (Cat #5053 obtained from Labdiet, Saint Louis, MO) and water for (filtered and packed using a Hydrapak system) for 7 days until the start of the experiment. Zucker (fa/fa) obese rats were randomly assigned to two groups: 1) vehicle p.o.b.i.d. (oral administration, twice a day) for 78 days; and 2) 100 milligram per kilogram (mg/kg) body weight APL (p.o.b.i.d.) for 78 days. Zucker (Fa/fa) lean rats served as control. The APL dosage was 100 mg/kg/day. Animals were fed ad libitum. The animals were humanely euthanized, and the livers were removed for histological analysis. Liver samples in formalin were allowed to fix for 48 hours, and processed into FFPE blocks after fixations. Slides were stained with hematoxylin and eosin (H&E) and Mason trichrome staining.
Liver samples from the Zucker rats in Example 4 were stained with an anti-4HNE antibody from Abcam (catalog #ab46545) for immunofluorescent analysis of the presence of 4-HNE. The data are depicted in FIG. 9. FIG. 9A are representative images of 4-HNE immunofluorescence liver sections from Zucker (Fa/fa) lean rats, Zucker (fa/fa) obese rats administered vehicle, and Zucker (fa/fa) obese rats administered vehicle administered APL. FIG. 9B is a plot of the 4HNE immunofluorescence intensity per tissue area, and FIG. 9C is a plot of total tissue area. […] Cytotoxic lipid by products such as 4-HNE are known to be elevated in human NASH livers as compared to healthy livers. See e.g., Serviddio et al., Uncoupling protein-2 (UCP2) induces mitochondrial proton leak and increases susceptibility of non-alcoholic steatohepatitis (NASH) liver to ischaemia-reperfusion injury. Gut. 2008 July; 57(7):957-65. doi: 10.1136/gut.2007.147496. Epub 2008 Feb. 28. The data implies that 4-HNE plays a crucial role in the pathogenesis of NASH.

[3] = test system: Zucker (fa/fa) obese rats; assay: Hepatic fibrosis: H&E and Mason trichrome liver histology in Zucker rat NASH model; assay type: in vivo; conditions: 100 mg/kg APL p.o. b.i.d., 78 days
Source text: as §1

[4] = test system: C57BL/6J mice fed AMLN diet changed to HFD; assay: Liver function serum biomarkers in AMLN diet mouse model of NASH; assay type: in vivo; conditions: 16 weeks (week 50-66)
Experimental: C57BL/6 mice were maintained in cages and had free access to standard rodent chow (Cat #5053, obtained from Labdiet, Saint Louis, MO) and water. C57BL/6J mice were fed either CHOW (negative control) or amylin liver NASH (AMLN) diet (58% high fat, 25% carbohydrate, 2% cholesterol) for twenty (20) weeks. Beginning at twenty (20) weeks, animals fed AMLN diet were changed to HFD. At fifty (50) weeks, animals were treated twice daily (b.i.d.) with oral administration (p.o.) of either vehicle (positive control) or APL (treated).

[5] = test system: C57BL/6J mice fed high fat/high fructose diet (HFD); assay: NAFLD Activity Score (NAS) in HFD DIO mouse model of NASH; assay type: in vivo; conditions: 130 days
Experimental: C57BL/6J mice were maintained in cages (5 mice per cage) and had free access to standard rodent chow (Cat #5053, obtained from Labdiet, Saint Louis, MO) and water (filtered and packed using a Hydrapak system) for 5 days until the start of the experiment. The animals were then randomly assigned to three groups (n=5 for each group receiving different diets and treatments as shown in Table B for 130 days. Each treatment was administered p.o.b.i.d. The APL dosage was 200 mg/kg body weight. “HFD” is high fat/high fructose diet, as described in Example 1 “Chow” refers to standard rodent chow, as described in Example 1. Animals were fed ad libitum.
At the conclusion of the test period, the animals were humanely euthanized, and the livers were removed for histological analysis. Liver samples in formalin were allowed to fix for 48 hours, and processed into FFPE blocks after fixations. Slides were stained with hematoxylin and eosin (H&E). FIG. 6A is the representation of multiple images of hematoxylin & eosin (H&E) staining of liver sections.
The liver samples were evaluated for liver fat (steatosis), inflammation, and hypertrophy in accordance the NAS scoring system. The NAS scoring is depicted in FIG. 6B. The NAS score for mice in the HFD/vehicle-treated mice is increased in all the pathological parameters, when compared with the CHOW/vehicle-treated mice: macrovesicular steatosis, microvesicular steatosis, hepatic hypertrophy and inflammatory foci. […] Thus, APL attenuates hepatic steatosis, inflammation and hypertrophy in the liver, each pathognomic of liver damage and NASH.

[6] = Zucker obese rats, 100 mg/kg APL p.o. b.i.d., 78 days, ***p<0.001

SMILES: NCCCNCCCC[C@H](N)C(=O)O [APL, (S)-2-amino-6-((3-aminopropyl)amino)hexanoic acid]
- affinity for 4-HNE [1]: high affinity
- hepatic 4-HNE intensity / total tissue area, treated vs negative control ([2]; Zucker obese rats treated with APL vs lean control): No significant statistical difference
- hepatic 4-HNE immunofluorescence intensity per tissue area, treated vs obese vehicle [2, 6]: significantly reduces
- total liver tissue area (FIG. 9C), treated vs obese vehicle [2, 6]: maintains the total liver tissue area
- liver morphology, H&E (FIG. 8A) [3]: preserve the normal morphology of the liver
- liver collagen fibers, Mason trichrome blue staining (FIG. 8B/8C) ([3]; vs multiple collagen fibers with vehicle): minimum blue staining
- serum ALP vs positive control ([4]; APL 50 mg/kg/day p.o. b.i.d.): significant reduction
- serum ALT vs positive control ([4]; APL 50 mg/kg/day p.o. b.i.d.): significant reduction
- serum AST vs positive control ([4]; APL 50 mg/kg/day p.o. b.i.d.): significant reduction
- serum nonesterified fatty acids (NEFA) vs positive control ([4]; APL 50 mg/kg/day p.o. b.i.d.): significant reduction
- serum triglycerides vs positive control ([4]; APL 50 mg/kg/day p.o. b.i.d.): significant reduction
- serum cholesterol vs positive control ([4]; APL 200 mg/kg/day p.o. b.i.d.): significant reduction
- NAS parameters: macrovesicular steatosis, microvesicular steatosis, hepatic hypertrophy, inflammatory foci (FIG. 6B) ([5]; APL 200 mg/kg p.o. b.i.d., vs HFD vehicle, ***p<0.001): statistically significant amelioration
- lobular inflammation score, treated group vs negative control (FIG. 7B) ([5]; APL 200 mg/kg, ****p<0.0001): significant statistical difference
- NAS component scores: steatosis, lobular inflammation, hepatic ballooning (FIG. 7B), treated vs positive control ([5]; APL 200 mg/kg/day divided into 2 doses, ****p<0.0001): significantly reduces
